# Data published in ChEMBL document CHEMBL3822390, “Synthesis, characterization and anti-cancer activity of a peptide nucleolipid bioconjugate” (2016).
# Experiments:
# Assay type in all cases: functional
# [1] = system: EKVX; experiment: Cytotoxicity against human EKVX cells assessed as cell growth at 10 uM after 48 hrs by SRB assay; conditions: read-out: Activity
# [2] = system: MDA-MB-468; experiment: Cytotoxicity against human MDA-MB-468 cells assessed as cell growth at 10 uM after 48 hrs by SRB assay; conditions: MDA-MB-468, 48 h, read-out: Activity
# [3] = system: T47D; experiment: Cytotoxicity against human T47D cells assessed as cell growth at 10 uM after 48 hrs by SRB assay; conditions: read-out: Activity
# [4] = system: A498; experiment: Cytotoxicity against human A498 cells assessed as cell growth at 10 uM after 48 hrs by SRB assay; conditions: A498, 48 h, read-out: Activity
# [5] = system: NCI-H23; experiment: Cytotoxicity against human NCI-H23 cells assessed as cell growth at 10 uM after 48 hrs by SRB assay; conditions: NCI-H23, 48 h, read-out: Activity
# [6] = system: MDA-MB-231; experiment: Cytotoxicity against human MDA-MB-231 cells assessed as cell growth at 10 uM after 48 hrs by SRB assay; conditions: MDA-MB-231, 48 h, read-out: Activity
# [7] = Cytotoxicity against human HCT116 cells assessed as cell growth at 10 uM after 48 hrs by SRB assay; conditions: HCT-116, 48 h, read-out: Activity
# [8] = system: SN12C; experiment: Cytotoxicity against human SN12C cells assessed as cell growth at 10 uM after 48 hrs by SRB assay; conditions: read-out: Activity
# [9] = system: 786-0; experiment: Cytotoxicity against human 786-0 cells assessed as cell growth at 10 uM after 48 hrs by SRB assay; conditions: 786-0, 48 h, read-out: Activity
# [10] = Cytotoxicity against human SKOV3 cells assessed as cell growth at 7.25 uM after 48 hrs by SRB assay; conditions: SK-OV-3, 48 h, read-out: Activity
# [11] = Cytotoxicity against human HOP92 cells assessed as cell growth at 7.25 uM after 48 hrs by SRB assay; conditions: HOP-92, 48 h, read-out: Activity
# [12] = system: MDA-MB-435; experiment: Cytotoxicity against human MDA-MB-435 cells assessed as cell growth at 7.25 uM after 48 hrs by SRB assay; conditions: MDA-MB-435, 48 h, read-out: Activity
# [13] = system: HT-29; experiment: Cytotoxicity against human HT-29 cells assessed as cell growth at 7.25 uM after 48 hrs by SRB assay; conditions: HT-29, 48 h, read-out: Activity
# [14] = Cytotoxicity against human SNB19 cells assessed as cell growth at 7.25 uM after 48 hrs by SRB assay; conditions: SNB-19, 48 h, read-out: Activity
# [15] = Cytotoxicity against human COLO205 cells assessed as cell growth at 7.25 uM after 48 hrs by SRB assay; conditions: COLO 205, 48 h, read-out: Activity
# [16] = Cytotoxicity against human SW620 cells assessed as cell growth at 7.25 uM after 48 hrs by SRB assay; conditions: SW-620, 48 h, read-out: Activity
# [17] = Cytotoxicity against human RXF393 cells assessed as cell growth at 7.25 uM after 48 hrs by SRB assay; conditions: RXF 393, 48 h, read-out: Activity
# [18] = system: M14; experiment: Cytotoxicity against human M14 cells assessed as cell growth at 7.25 uM after 48 hrs by SRB assay; conditions: M14, 48 h, read-out: Activity
# [19] = Cytotoxicity against human OVCAR3 cells assessed as cell growth at 2.13 uM after 48 hrs by SRB assay; conditions: OVCAR-3, 48 h, read-out: Activity
# [20] = Cytotoxicity against human SF539 cells assessed as cell growth at 2.13 uM after 48 hrs by SRB assay; conditions: SF-539, 48 h, read-out: Activity
# [21] = system: NCI-H226; experiment: Cytotoxicity against human NCI-H226 cells assessed as cell mortality at 2.13 uM after 48 hrs by SRB assay; conditions: NCI-H226, 48 h
# [22] = Cytotoxicity against human SNB19 cells assessed as cell growth at 2.13 uM after 48 hrs by SRB assay; conditions: SNB-19, 48 h, read-out: Activity
# [23] = Cytotoxicity against human Hs 578T cells assessed as cell growth at 2.13 uM after 48 hrs by SRB assay; conditions: read-out: Activity
# [24] = system: NCI-H23; experiment: Cytotoxicity against human NCI-H23 cells assessed as cell growth at 2.13 uM after 48 hrs by SRB assay; conditions: NCI-H23, 48 h, read-out: Activity
# [25] = Cytotoxicity against human HOP62 cells assessed as cell growth at 2.13 uM after 48 hrs by SRB assay; conditions: HOP-62, 48 h, read-out: Activity
# [26] = system: NCI-H226; experiment: Cytotoxicity against human NCI-H226 cells assessed as cell growth at 2.13 uM after 48 hrs by SRB assay; conditions: NCI-H226, 48 h, read-out: Activity
smiles,measurement,setting,value
CC(C)C[C@H](NC(=O)[C@H](CCCCN)NC(=O)[C@H](C)NC(=O)[C@H](CC(C)C)NC(=O)[C@H](CCCCN)NC(=O)[C@H](CCCCN)NC(=O)[C@H](C)NC(=O)[C@H](CC(C)C)NC(=O)[C@H](CCCCN)NC(=O)[C@H](C)NC(=O)[C@H](CC(C)C)NC(=O)[C@H](CCCCN)NC(=O)[C@@H](N)CC(=O)O)C(=O)N[C@@H](C)C(=O)N[C@@H](CCCCN)C(=O)N[C@@H](C)C(=O)N[C@@H](CCCCN)C(N)=O,growth at 10 µM,[1],104%
same,growth at 10 µM,[2],100%
same,growth at 10 µM,[3],113%
same,growth at 10 µM,[4],115%
same,growth at 10 µM,[5],103%
same,growth at 10 µM,[6],109%
same,growth at 10 µM,[7],92.1%
same,growth at 10 µM,[8],99%
same,growth at 10 µM,[9],105%
CCCCCCCCCCCCCCCC(=O)NCCCC[C@H](NC(=O)[C@H](C)NC(=O)[C@H](CCCCN)NC(=O)[C@H](C)NC(=O)[C@H](CC(C)C)NC(=O)[C@H](CCCCN)NC(=O)[C@H](C)NC(=O)[C@H](CC(C)C)NC(=O)[C@H](CCCCN)NC(=O)[C@H](CCCCN)NC(=O)[C@H](C)NC(=O)[C@H](CC(C)C)NC(=O)[C@H](CCCCN)NC(=O)[C@H](C)NC(=O)[C@H](CC(C)C)NC(=O)[C@H](CCCCN)NC(=O)[C@@H](N)CC(=O)O)C(N)=O,growth at 7.25 µM,[10],99.8%
same,growth at 7.25 µM,[11],113%
same,growth at 7.25 µM,[12],113%
same,growth at 7.25 µM,[13],92.4%
same,growth at 7.25 µM,[14],103%
same,growth at 7.25 µM,[15],112%
same,growth at 7.25 µM,[16],107%
same,growth at 7.25 µM,[17],111%
same,growth at 7.25 µM,[18],102%
CCCCCCCCCCCCCCCCNCCO[C@H]1C[C@H](n2cc(C)c(=O)[nH]c2=O)O[C@@H]1C(=O)NCCCC[C@H](NC(=O)[C@H](C)NC(=O)[C@H](CCCCN)NC(=O)[C@H](C)NC(=O)[C@H](CC(C)C)NC(=O)[C@H](CCCCN)NC(=O)[C@H](C)NC(=O)[C@H](CC(C)C)NC(=O)[C@H](CCCCN)NC(=O)[C@H](CCCCN)NC(=O)[C@H](C)NC(=O)[C@H](CC(C)C)NC(=O)[C@H](CCCCN)NC(=O)[C@H](C)NC(=O)[C@H](CC(C)C)NC(=O)[C@H](CCCCN)NC(=O)[C@@H](N)CC(=O)O)C(N)=O,growth at 2.13 µM,[19],107%
same,growth at 2.13 µM,[20],98.8%
same,mortality at 2.13 µM,[21],4%
same,growth at 2.13 µM,[22],106%
same,growth at 2.13 µM,[23],101%
same,growth at 2.13 µM,[24],106%
same,growth at 2.13 µM,[25],99.4%
same,growth at 2.13 µM,[26],96.5%
